How the values were obtained:
[1] = Shelf-life of tablets / pharmaceutical compositions; type: physicochemical
Source text: However, in view of the intrinsic fragility of perindopril, the tert-butylamine salt has not been capable of providing a complete solution to the problems of the product's stability to heat and humidity. Indeed, for marketing, tablets of perindopril tert-butylamine salt must, in certain countries, be protected with additional packaging measures. Moreover, even for temperate-climate countries, that instability has made it impossible to obtain a shelf-life of more than 2 years for the tablets. Finally, for marketing of the tablets, they have to be marked “to be stored at a temperature less than or equal to 30 degrees”.

[2] = Long-term stability study of immediate-release tablets, perindopril assayed by inverse-phase HPLC; type: physicochemical; conditions: for Percentage remaining (%): 6 months; for degradation rate: after 6 months
Description: Long-term stability studies carried out under very precise temperature and humidity conditions have yielded the results indicated in the Table hereinbelow.
In that study, perindopril was assayed by inverse-phase high-pressure liquid chromatography using, as eluant, an aqueous phase (comprising sodium heptane-sulphonate, and the pH of which is 2) and acetonitrile (67/33). Detection of the product was carried out by UV (215 nm).
The study was carried out using immediate-release tablets containing either 2.4 mg of the arginine salt of perindopril or 2.0 mg of the tert-butylamine salt of perindopril (each of the two tablets containing 1.7 mg of perindopril). The tablets were assayed 6 months after the start of storage of the tablets at different temperatures and different relative humidities (% R.H.).
The arginine salt used in this study is the L-arginine salt. It has been prepared according to a classical method of salification of organic chemistry.

| SMILES | shelf-life ([1]; pharmaceutical compositions, considered from the 6-month results) | Percentage remaining (%) ([2]; 25° C., 60% R.H.) | Percentage remaining (%) ([2]; 30° C., 60% R.H.) | Percentage remaining (%) ([2]; 40° C., 75% R.H.) | degradation rate [2] | shelf-life ([1]; tablets, temperate-climate countries) [years] |
| --- | --- | --- | --- | --- | --- | --- |
| CCC[C@H](N[C@@H](C)C(=O)N1[C@H](C(=O)O)C[C@@H]2CCCC[C@@H]21)C(=O)OCC.N=C(N)NCCC[C@H](N)C(=O)O [Arginine salt of perindopril] | at least three years | 99.5 | 98.1 | 98.6 | practically no degradation |  |
| CC(C)(C)N.CCC[C@H](N[C@@H](C)C(=O)N1[C@H](C(=O)O)C[C@@H]2CCCC[C@@H]21)C(=O)OCC [tert-Butylamine salt of perindopril] |  | 101.0 | 94.4 | 67.2 | approximately 33% | ≤ 2 |
